# According to patent publication US5534498A, “Trypsin inhibitors” (Corvas International, Inc., priority 1993, dated 1996):
# Residues, ends and D or L forms follow the SMILES beside them. *: point of attachment. Boc = CC(C)(C)OC(=O)*
# Legend:
# [1] = target: recombinant tissue plasminogen activator (Homo sapiens, UniProt P00750); assay: Tissue plasminogen activator assay (S-2288 substrate); type: biochemical
# Procedure: (§1) The specificity of the peptide aldehydes (8 through 12) was determined in vitro by measurement of their IC50 against other enzymes involved in hemostasis. A specific concentration of enzyme and its substrate were challenged with varying concentrations of inhibitor. […] Specific assay procedures used are presented below.
# (§2) 96-well microtiter plates were prepared for use in these assays by incubating each well with 300 μL 1% bovine serum albumin (in deionized water) for 30 minutes at 37° C., then washing three times with deionized water.
# (§3) The substrate was made up in deionized water prior to use.
# [2] = target: T1, Activated human Protein C (Homo sapiens, UniProt P04070); assay: Protein C assay (Pefachrome PC substrate); type: biochemical
# T1 construct: from tissue
# T1 sequence (P04070 212-461 limits assumed): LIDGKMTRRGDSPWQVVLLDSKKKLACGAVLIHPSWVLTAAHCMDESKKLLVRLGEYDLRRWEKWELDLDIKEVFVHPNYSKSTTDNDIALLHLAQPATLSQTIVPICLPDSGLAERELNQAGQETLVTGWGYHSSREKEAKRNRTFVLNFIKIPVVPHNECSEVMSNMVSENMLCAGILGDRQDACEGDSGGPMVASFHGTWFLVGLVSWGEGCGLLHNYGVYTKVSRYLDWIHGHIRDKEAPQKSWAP
# T1 sequence (P04070 43-197 partner limits assumed): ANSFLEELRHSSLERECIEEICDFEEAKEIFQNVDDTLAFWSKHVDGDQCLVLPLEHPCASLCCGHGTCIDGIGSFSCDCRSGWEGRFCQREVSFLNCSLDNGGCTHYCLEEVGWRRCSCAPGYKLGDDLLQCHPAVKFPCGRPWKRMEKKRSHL
# Procedure: as §1, §2
# Enzyme activity was determined using as substrate, Pefachrome PC [δ-carbobenzoloxy-D-lysyl-L-prolyl-L-arginine-p-nitroanilide], purchased from Centerchem, Inc. The substrate was made up in deionized water prior to use. Protac used to activate Protein C was obtained from American Diagnostics.
# human Factor Xa = target: T2, human Factor Xa (Homo sapiens, UniProt P00742); assay: Factor Xa assay (Pefachrome Xa substrate); type: biochemical
# T2 construct: 50 μL 30 nM human Factor Xa
# T2 sequence (P00742 235-488 limits assumed): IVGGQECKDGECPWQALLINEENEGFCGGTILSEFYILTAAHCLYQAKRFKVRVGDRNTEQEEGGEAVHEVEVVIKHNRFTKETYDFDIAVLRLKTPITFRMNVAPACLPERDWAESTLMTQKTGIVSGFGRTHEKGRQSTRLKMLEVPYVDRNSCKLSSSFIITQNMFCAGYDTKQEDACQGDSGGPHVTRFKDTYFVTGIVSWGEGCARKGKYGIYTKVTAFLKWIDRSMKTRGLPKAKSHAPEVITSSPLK
# T2 sequence (P00742 41-179 partner limits assumed): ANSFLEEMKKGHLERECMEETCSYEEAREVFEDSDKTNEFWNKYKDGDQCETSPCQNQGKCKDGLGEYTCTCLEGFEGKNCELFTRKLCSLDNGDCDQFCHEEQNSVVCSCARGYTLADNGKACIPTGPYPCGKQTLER
# Procedure: as §1, §2
# Enzyme activity was determined using as substrate, Pefachrome Xa [N-methoxycarbonyl-D-cyclohexylalanyl-L-glycyl-L-arginine p-niroanilide acetate], purchased from Centerchem, Inc. The substrate was made up in deionized water prior to use.
# plasmin = plasmin (Homo sapiens, UniProt P00747); assay: Plasmin assay (S-2251 substrate); type: biochemical; parameters: 50 μL 25 nM human plasmin
# plasmin, sequence (P00747 581-810 limits assumed): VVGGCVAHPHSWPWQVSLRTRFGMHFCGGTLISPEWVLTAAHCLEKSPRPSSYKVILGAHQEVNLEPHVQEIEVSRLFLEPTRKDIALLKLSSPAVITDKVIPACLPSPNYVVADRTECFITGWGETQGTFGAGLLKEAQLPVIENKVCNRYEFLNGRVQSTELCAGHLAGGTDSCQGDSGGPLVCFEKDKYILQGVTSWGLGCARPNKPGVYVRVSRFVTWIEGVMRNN
# plasmin, sequence (P00747 97-580 partner limits assumed): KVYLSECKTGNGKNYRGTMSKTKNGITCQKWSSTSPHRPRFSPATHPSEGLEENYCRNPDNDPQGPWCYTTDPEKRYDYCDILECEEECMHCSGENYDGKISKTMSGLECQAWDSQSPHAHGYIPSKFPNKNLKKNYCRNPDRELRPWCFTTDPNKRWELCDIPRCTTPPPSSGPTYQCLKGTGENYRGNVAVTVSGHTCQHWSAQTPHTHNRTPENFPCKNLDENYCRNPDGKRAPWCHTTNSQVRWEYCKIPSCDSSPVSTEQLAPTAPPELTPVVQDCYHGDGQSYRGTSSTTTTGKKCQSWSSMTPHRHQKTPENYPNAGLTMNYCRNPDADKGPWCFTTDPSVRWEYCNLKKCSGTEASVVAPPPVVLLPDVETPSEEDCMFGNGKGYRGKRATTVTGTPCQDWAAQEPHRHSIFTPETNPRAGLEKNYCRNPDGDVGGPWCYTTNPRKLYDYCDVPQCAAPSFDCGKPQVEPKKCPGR
# Procedure: as §1, §2, §3
# Factor VIIa:rTF complex = target: T3, Factor VIIa:rTF complex (Homo sapiens, UniProt P08709); assay: Factor VIIa assay (S-2288 substrate); type: biochemical
# T3 construct: 2.5 ml 400 nMhuman Factor VIIa
# T3 sequence (P08709 213-466 limits assumed): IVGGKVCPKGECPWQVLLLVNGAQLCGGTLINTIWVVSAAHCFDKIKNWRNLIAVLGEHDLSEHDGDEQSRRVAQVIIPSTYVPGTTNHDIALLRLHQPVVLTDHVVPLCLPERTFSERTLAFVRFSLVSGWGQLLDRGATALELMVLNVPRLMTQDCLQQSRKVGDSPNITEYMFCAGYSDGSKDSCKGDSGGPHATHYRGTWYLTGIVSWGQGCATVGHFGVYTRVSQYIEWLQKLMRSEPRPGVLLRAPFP
# T3 sequence (P08709 61-212 partner limits assumed): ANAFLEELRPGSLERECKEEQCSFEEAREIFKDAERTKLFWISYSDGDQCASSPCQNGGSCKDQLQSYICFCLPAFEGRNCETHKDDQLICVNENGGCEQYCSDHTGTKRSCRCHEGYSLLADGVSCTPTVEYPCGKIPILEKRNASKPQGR
# T3 sequence (P13726 33-295 partner): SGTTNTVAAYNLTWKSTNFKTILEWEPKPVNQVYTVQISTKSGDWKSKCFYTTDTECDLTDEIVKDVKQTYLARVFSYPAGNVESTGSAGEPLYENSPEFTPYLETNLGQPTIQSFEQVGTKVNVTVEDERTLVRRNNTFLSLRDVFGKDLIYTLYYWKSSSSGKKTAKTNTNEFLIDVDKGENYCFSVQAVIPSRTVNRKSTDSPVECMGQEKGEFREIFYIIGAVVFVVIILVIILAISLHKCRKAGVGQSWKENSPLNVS
# Procedure: (§4) The specificity of the peptide aldehydes (8 through 12) was determined in vitro by measurement of their IC50 against other enzymes involved in hemostasis. A specific concentration of enzyme and its substrate were challenged with varying concentrations of inhibitor. IC50 is that concentration of inhibitor giving 50% inhibition of substrate turnover, under the assay conditions. Specific assay procedures used are presented below.
# as §2
# Enzyme activity was determined using as substrate, S-2288 [D-isoleucyl-L-prolyl-L-arginine-p-nitroanilide dihydrochloride], purchased from Kabi Diagnostica. The substrate was made up in deionized water prior to use.
# Both solutions were then incubated for 30 minutes at room temperature before use in the assay.
# The assay was run by combining in appropriate wells 50 μL inhibitor in TBS or TBS alone and 100 μL of Factor VIIa:rTF complex or background control, incubating this mixture for 30 minutes at room temperature, adding 50 μL of 2 mM S-2288, incubating for an additional 30 to 60 minutes at room temperature, then reading the absorbance of the wells at 405 nm on a microtiter plate reader set with background substraction at 650 nm.
# [3] = tested on: caerulein-induced pancreatitis in balb/c mice; assay: Animal model for pancreatitis: caerulein-induced pancreatitis, serum amylase; type: in vivo; settings: caerulein 3 × 100 μg/kg IP, inhibitor 50 mg/kg IP, blood 4 hours after last inhibitor injection, saline + caerulein 64.4 ± 14.4, control 10.4 ± 1.6
# Procedure: The efficacy of the compounds of the present invention as a prophylactic treatment for pancreatitis is assessed in vivo using the chemically-induced animal model of Niederau et al., Gastroenterology 88:1192-1204 (1985).
# Pancreatitis was induced in fasting male balb/c mice weighing between 18 to 20 g by giving them three IP injections of caerulein, with each dose at 100 μg/kg body weight. The injections of each were given at two hour intervals over a 6 hour period. The ability of N-Boc-L-Asp-Pro-Arg-al (compound 9) to inhibit the induced pancreatitis was tested by injection into caerulein-treated mice. The inhibitor was dissolved into TBS, then injected IP into the mice. The first injection was given 1/4 hour prior to the caerulein treatment, then one hour after each caerulein injection. Inhibitor dose tested was 50 mg/kg body weight.
# A blood serum sample was drawn and tested for amylase concentration. The blood sample was obtained by periorbital bleeding into heparized tubes 4 hours after the last injection of inhibitor. After centrifuging to remove the blood cells, the serum was the diluted 1:10 in TBS and assayed with Sigma Diagnostics Amylase reagent. The kinetic change in absorbance was measured at 405 nm for 1 minute, then was convereted into U/ml amylase activity.
# bovine thrombin = target: T4, bovine thrombin (Bos taurus, UniProt P00735); assay: Thrombin assay (S-2238 substrate); type: biochemical
# T4 construct: 50 μL 20 nM bovine thrombin
# Procedure: as §4, §2
# Enzyme activity was determined using as substrate, S-2238 [D-phenylalanyl-L-pipecolyl-L-arginine-p-nitroanilide dihydrochloride], purchased from Kabi Diagnostica. The substrate was made up in deionized water prior to use.
# The assay was run by combining in appropriate wells 50 μL TBS and 50 μL inhibitor in TBS or TBS alone and 50 μL 20 nM bovine thrombin (or TBS as background control), incubating this mixture for 30 minutes at room temperature, adding 50 μL 1 mM S-2238, incubating for an additional 30 minutes at room temperature, then reading the absorbance of the wells at 405 nm on a microtiter plate reader set with background substraction at 650 nm.
# human kallekrein = target: T5, human kallekrein (Homo sapiens, UniProt P03952); assay: Kallikrein assay (S-2302 substrate); type: biochemical
# T5 construct: 50 μL of 4 to 9 nM human kallekrein
# T5 sequence (P03952 391-638 limits assumed): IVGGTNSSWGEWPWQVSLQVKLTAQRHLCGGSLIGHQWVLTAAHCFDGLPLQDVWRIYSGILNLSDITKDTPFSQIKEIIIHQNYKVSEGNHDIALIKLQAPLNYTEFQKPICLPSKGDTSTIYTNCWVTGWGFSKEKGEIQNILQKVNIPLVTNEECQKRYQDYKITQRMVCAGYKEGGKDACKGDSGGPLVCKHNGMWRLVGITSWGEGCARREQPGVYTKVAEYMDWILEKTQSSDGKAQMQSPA
# T5 sequence (P03952 20-390 partner limits assumed): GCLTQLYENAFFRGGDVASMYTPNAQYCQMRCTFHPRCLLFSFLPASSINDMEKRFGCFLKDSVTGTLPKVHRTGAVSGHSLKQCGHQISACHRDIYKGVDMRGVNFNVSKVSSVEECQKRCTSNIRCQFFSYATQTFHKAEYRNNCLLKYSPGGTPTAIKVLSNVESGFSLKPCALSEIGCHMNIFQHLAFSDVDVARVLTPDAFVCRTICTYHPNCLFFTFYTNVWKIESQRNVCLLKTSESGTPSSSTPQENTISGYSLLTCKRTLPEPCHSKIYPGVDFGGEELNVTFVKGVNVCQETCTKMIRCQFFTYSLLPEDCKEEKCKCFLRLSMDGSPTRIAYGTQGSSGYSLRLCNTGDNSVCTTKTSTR
# Procedure: as §1, §2, §3
# bovine trypsin = target: T6, bovine trypsin (Bos taurus, UniProt P00760); assay: Trypsin assay, IC50 (S-2222 substrate); type: biochemical
# T6 sequence (P00760 24-246): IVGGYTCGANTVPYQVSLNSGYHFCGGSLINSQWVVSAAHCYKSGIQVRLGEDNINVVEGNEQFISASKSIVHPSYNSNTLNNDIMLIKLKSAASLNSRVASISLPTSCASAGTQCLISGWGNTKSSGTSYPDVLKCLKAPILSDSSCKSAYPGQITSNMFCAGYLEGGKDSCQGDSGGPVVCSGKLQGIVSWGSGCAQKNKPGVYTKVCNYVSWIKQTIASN
# Procedure: as §1, §2, §3
# [4] = 30 min preincubation, room temperature, tested 0.025-25 μM, Inact. = no inhibition at highest concentration
# [5] = [IC50 for Trypsin/IC50 for other enzyme]×100, lower = more trypsin selective
# recombinant tissue plasminogen activator, sequence (P00750 36-562): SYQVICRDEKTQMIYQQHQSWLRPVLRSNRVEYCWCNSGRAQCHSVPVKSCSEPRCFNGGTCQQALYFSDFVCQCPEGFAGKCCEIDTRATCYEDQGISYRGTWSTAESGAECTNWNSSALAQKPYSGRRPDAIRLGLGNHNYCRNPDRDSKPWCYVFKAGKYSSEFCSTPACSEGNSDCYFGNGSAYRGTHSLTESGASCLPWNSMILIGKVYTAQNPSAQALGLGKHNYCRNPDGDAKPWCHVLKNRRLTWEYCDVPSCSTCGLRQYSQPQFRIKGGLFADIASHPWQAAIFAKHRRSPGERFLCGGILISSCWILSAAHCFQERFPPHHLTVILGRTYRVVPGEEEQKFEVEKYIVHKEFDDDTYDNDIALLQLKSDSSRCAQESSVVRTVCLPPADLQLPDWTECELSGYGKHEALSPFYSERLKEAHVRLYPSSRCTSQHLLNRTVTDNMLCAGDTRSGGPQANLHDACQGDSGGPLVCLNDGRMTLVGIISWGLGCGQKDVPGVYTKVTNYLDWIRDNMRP
compound,measurement,setting,value
"CC(C)(C)OC(=O)N[C@@H](CC(=O)O)C(=O)N1CCC[C@H]1C(=O)N[C@H](C=O)CCCNC(=N)N [Compound 9, N-t-butyloxycarbonyl-L-Asp-L-Pro-L-argininal] (Boc-Asp-Pro-Arg-aldehyde)",IC50 tPA,[1]; [4],Inact.
same,Calculated % Selectivity tPA,[1]; [5],0%
same,IC50 Protein C,[2]; [4],Inact.
same,Calculated % Selectivity Protein C,[2]; [5],0%
same,IC50,human Factor Xa; [4],> 25 µM
same,Calculated % Selectivity Xa,human Factor Xa; [5],< 0.06%
same,IC50,plasmin; [4],1.4 µM
same,Calculated % Selectivity Plasmin,plasmin; [5],1%
same,IC50 VIIA,Factor VIIa:rTF complex; [4],Inact.
same,Calculated % Selectivity VIIa,Factor VIIa:rTF complex; [5],0%
same,"Amylase Activity, Mean ± S.D",[3],40.8 ± 5.2 U/ml
same,IC50,bovine thrombin; [4],17 µM
same,Calculated % Selectivity Thrombin,bovine thrombin; [5],0.08%
same,IC50,human kallekrein; [4],17 µM
same,Calculated % Selectivity Kallikrein,human kallekrein; [5],0.08%
same,IC50,"bovine trypsin; 30 min preincubation, room temperature, tested 0.025-25 μM",0.014 µM
same,Calculated % Selectivity Trypsin,"bovine trypsin; trypsin relative to itself (reference, 100 by definition)",100%
